This is an account of results in ChEMBL document CHEMBL5120915, “Synthesis of Sulfur-Containing Analogues of Hedychenone, a Labdane Diterpenoid from Hedychium spicatum” (J Nat Prod, 2022).

Experiment [1] can be described thus: Inhibition of Saccharomyces cerevisiae alpha-glucosidase using pNPG as substrate preincubated for 5 mins followed by pNPG addition and measured after 10 mins by microplate reader method.
The subject of another experiment is Staphylococcus aureus. The experiment in a line: Antibacterial activity against Staphylococcus aureus MTCC 96 assessed as zone of inhibition preincubated for 2 to 3 hrs followed by 12 to 24 hrs incubation at aerobic condition by well diffusion method. Type of experiment: functional. The settings on record: time 14-27 hrs.

Converted amounts (≈) assume the structure as drawn.

Take `CSc1ccc(Sc2occc2/C=C/[C@H]2C(C)=CC(=O)[C@H]3C(C)(C)CCC[C@]23C)cc1`: the half-maximal inhibitory concentration (IC50) in experiment [1] stood at 9.7 µg/mL (≈ 21.4 µM). Still for that read-out and setting: next, `CC1=CC(=O)[C@H]2C(C)(C)CCC[C@]2(C)[C@H]1/C=C/c1ccoc1SCc1ccc(Cl)cc1`: 9.7 µg/mL (≈ 21.3 µM); `CC1=CC(=O)[C@H]2C(C)(C)CCC[C@]2(C)[C@H]1/C=C/c1ccoc1Sc1ccccc1C`: 9.7 µg/mL (≈ 23.1 µM); `CC1=CC(=O)[C@H]2C(C)(C)CCC[C@]2(C)[C@H]1/C=C/c1ccoc1Sc1ccc(F)cc1`: 9.7 µg/mL (≈ 22.8 µM). On the same count and under the same terms, next, `CC1=CC(=O)[C@H]2C(C)(C)CCC[C@]2(C)[C@H]1/C=C/c1ccoc1Sc1ccc(Cl)cc1`: 9.7 µg/mL (≈ 22 µM); `CC1=CC(=O)[C@H]2C(C)(C)CCC[C@]2(C)[C@H]1/C=C/c1ccoc1Sc1ccccc1F`: 12.15 µg/mL (≈ 28.6 µM). Turning to `CC1=CC(=O)[C@H]2C(C)(C)CCC[C@]2(C)[C@H]1/C=C/c1ccoc1Sc1cccc(Cl)c1`, the “inhibition zone (IZ)” value in the experiment with Staphylococcus aureus amounted to 6 mm. In experiment [1], this compound registered an IC50 of 9.7 µg/mL (≈ 22 µM).

Take `COc1ccccc1Sc1occc1/C=C/[C@H]1C(C)=CC(=O)[C@H]2C(C)(C)CCC[C@]12C`: the IC50 in experiment [1] amounted to 11.82 µg/mL (≈ 27.1 µM). Same read-out and setting: under `CC1=CC(=O)[C@H]2C(C)(C)CCC[C@]2(C)[C@H]1/C=C/c1ccoc1Sc1cccc(F)c1` stands 9.7 µg/mL (≈ 22.8 µM). Compound `CC1=CC(=O)[C@H]2C(C)(C)CCC[C@]2(C)[C@H]1/C=C/c1ccoc1Sc1ccccc1Br` registered a concentration for half-maximal inhibition (IC50) in experiment [1] of 13.01 µg/mL (≈ 26.8 µM).

In experiment [1], `CC1=CC(=O)[C@H]2C(C)(C)CCC[C@]2(C)[C@H]1/C=C/c1ccoc1Sc1cccc(C)c1` displayed an IC50 of 9.7 µg/mL (≈ 23.1 µM).

Compound `CC1=CC(=O)[C@H]2C(C)(C)CCC[C@]2(C)[C@H]1/C=C/c1ccoc1Sc1ccc(Br)cc1` yielded a 50% inhibitory concentration (IC50) in experiment [1] of 9.7 µg/mL (≈ 20 µM). The same measure, in the same setting: under `CC1=CC(=O)[C@H]2C(C)(C)CCC[C@]2(C)[C@H]1/C=C/c1ccoc1Sc1cccc(Br)c1` stands 12.23 µg/mL (≈ 25.2 µM); under `CC1=CC(=O)[C@H]2C(C)(C)CCC[C@]2(C)[C@H]1/C=C/c1ccoc1Sc1ccc2ccccc2c1`, 9.7 µg/mL (≈ 21.2 µM). In experiment [1], `CC1=CC(=O)[C@H]2C(C)(C)CCC[C@]2(C)[C@H]1/C=C/c1ccoc1Sc1ccccc1` gave a 50% inhibitory concentration (IC50) of 13.17 µg/mL (≈ 32.4 µM). This IC50 and that of the compound before are within 1.5-fold of each other.

In turn, `CC1=CC(=O)[C@H]2C(C)(C)CCC[C@]2(C)[C@H]1/C=C/c1ccoc1Sc1ccc(Cl)cc1Cl` came in with a half-inhibitory concentration (IC50) in experiment [1] of 9.7 µg/mL (≈ 20.4 µM). Still for that read-out and setting: next, `CC1=CC(=O)[C@H]2C(C)(C)CCC[C@]2(C)[C@H]1/C=C/c1ccoc1Sc1ccccc1Cl`: 9.7 µg/mL (≈ 22 µM); `CC1=CC(=O)[C@H]2C(C)(C)CCC[C@]2(C)[C@H]1/C=C/c1ccoc1SCc1ccc(F)cc1`: 9.7 µg/mL (≈ 22.1 µM); `CC1=CC(=O)[C@H]2C(C)(C)CCC[C@]2(C)[C@H]1/C=C/c1ccoc1SCc1ccccc1`: 13.34 µg/mL (≈ 31.7 µM). `C[C@H]1O[C@H](O[C@H]2[C@H](O)[C@@H](O)[C@@H](O[C@H]3[C@H](O)[C@@H](O)C(O)O[C@@H]3CO)O[C@@H]2CO)[C@H](O)[C@@H](O)[C@@H]1N[C@H]1C=C(CO)[C@@H](O)[C@H](O)[C@H]1O` (stereo partly specified) [ACARBOSE] registered a concentration for half-maximal inhibition (IC50) in experiment [1] of 3.95 µg/mL (≈ 6.12 µM).
